In PMC11662004 (Communications Chemistry, 2024):
“And” between values parts separate entries of the source, which are not always exact repeats. Equal entries are not always repeated. Where two headings read alike, the source gives them in different places.

Tests used:
[1] = tested on: TET2CDΔLCI; experiment: Continuous reaction monitoring (1H NMR), 2OG decarboxylation; assay type: biochemical, human; settings: Supp Fig 10 a
Procedure: Double-stranded DNA oligomers were added at a final concentration of 20 µM. Data plotted from two independent replicates (n = 2). Initial rates reported as the mean of two independent replicates (n = 2). TEXT PRINTED IN THE PICTURE: (c) No DNA: V0 (μM min^−1) NgTet1: 0.36; V0 (μM min^−1) TET2: 1.28; Relative V0 NgTet1: 1; Relative V0 TET2: 1 | (c) ^5HC DNA: V0 (μM min^−1) NgTet1: 1.30; V0 (μM min^−1) TET2: 6.34; Relative V0 NgTet1: 3.6; Relative V0 TET2: 5.0 | (c) AT DNA: V0 (μM min^−1) NgTet1: 0.82; V0 (μM min^−1) TET2: 5.78; Relative V0 NgTet1: 2.3; Relative V0 TET2: 4.5 | (c) ^5mC DNA: V0 (μM min^−1) NgTet1: 1.52; V0 (μM min^−1) TET2: 6.79; Relative V0 NgTet1: 4.2; Relative V0 TET2: 5.3
(§1) All ^1H NMR spectra were recorded at 25 °C using D2O as a reference for internal deuterium lock on a Bruker Avance III 700 MHz equipped with an inverse TCI cryoprobe in 3 or 5 mm diameter tubes with a total sample volume of 160 or 565 μL, respectively. The water signal was reduced using Perfect Echo excitation sculpting suppression. Chemical shifts are reported in ppm relative to D2O (δH = 4.70 ppm).
Spectrometer settings were determined using a control sample containing all reaction components excluding enzyme. TET enzyme was added to an identical sample, and the resulting assay mixture was transferred to an NMR tube before deposition into the instrument. […] Data acquisition was started following a brief spectrometer setting optimisation (up to 200 s delay between enzyme addition and data acquisition); 8–32 scans were accumulated for a single spectrum, corresponding to 65–179 s of acquisition time. Spectrum recordings were carried out consecutively without delay. Data were processed using automated routines on MestReNova v14.2.0; signals of interest were integrated with absolute intensity scaling. ^1H NMR time courses reported in figures are representative results from two or three independent replicates.

[2] = target: T1, NgTet1 (Naegleria gruberi, UniProt D2W6T1); assay type: biochemical; settings: for 2OG Concentration / Succinate Concentration: 20 μM 5HC DNA
T1 construct: His6-tagged full-length Naegleria gruberi NgTet1 (321 a. a.) protein with a thrombin cleavage site; made in house; host or cells: E. coli BL21(DE3)
T1 sequence (D2W6T1 1-321): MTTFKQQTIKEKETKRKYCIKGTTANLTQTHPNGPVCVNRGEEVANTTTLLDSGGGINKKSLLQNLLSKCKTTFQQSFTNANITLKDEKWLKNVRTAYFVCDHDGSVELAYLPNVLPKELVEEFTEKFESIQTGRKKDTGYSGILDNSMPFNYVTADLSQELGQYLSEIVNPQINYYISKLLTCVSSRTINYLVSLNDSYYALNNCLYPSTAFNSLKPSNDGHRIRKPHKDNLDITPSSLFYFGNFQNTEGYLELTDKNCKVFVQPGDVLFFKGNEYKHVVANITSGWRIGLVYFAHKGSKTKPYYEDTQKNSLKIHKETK
Procedure: Double-stranded 12 bp DNA oligomers were added at a final concentration of 20 µM. […]
Double-stranded DNA oligomers were added at a final concentration of 20 µM. […]
as §1
Spectrometer settings were determined using a control sample containing all reaction components excluding enzyme. TET enzyme was added to an identical sample, and the resulting assay mixture was transferred to an NMR tube before deposition into the instrument. […] Spectrum recordings were carried out consecutively without delay. Data were processed using automated routines on MestReNova v14.2.0; signals of interest were integrated with absolute intensity scaling. ^1H NMR time courses reported in figures are representative results from two or three independent replicates.

5HC DNA: non-methylated DNA of the same sequence, 5'-ACC ACC GGT GGT-3', non-substrate (DNA ACCACCGGTGGT; DNA, backbone not given here)
succinate ([1]; Time 0 min): 2.2 µM | succinate ([1]; Time 2.5 min): 3.9 µM | succinate ([1]; Time 5 min): 6.5 µM | succinate ([1]; Time 7.5 min): 9.5 µM | succinate ([1]; Time 10 min): 12.4 µM | succinate ([1]; Time 15 min): 17.3 µM | succinate ([1]; Time 20 min): 21.5 µM | 2OG Concentration ([2]; time 6.31667 min): 88.5781 µM | Succinate Concentration ([2]; time 6.31667 min): 11.4219 µM | 2OG Concentration ([2]; time 9.38333 min): 79.2717 µM | Succinate Concentration ([2]; time 9.38333 min): 20.7283 µM | 2OG Concentration ([2]; time 12.45 min): 72.6874 µM | Succinate Concentration ([2]; time 12.45 min): 27.3126 µM | 2OG Concentration ([2]; time 15.5167 min): 67.5286 µM | Succinate Concentration ([2]; time 15.5167 min): 32.4714 µM | 2OG Concentration ([2]; time 18.6 min): 63.1853 µM | Succinate Concentration ([2]; time 18.6 min): 36.8147 µM | V0 NgTet1 ([2]; 20 µM DNA, 100 μM 2OG, 5 μM NgTet1): 1.30 µM/min | 2-OG turnover rate ([2]; 2-OG 50 uM, 20 µM DNA): 1.2756 µM/min and 1.3302 µM/min | 2-OG turnover rate ([2]; 2-OG 100 uM, 20 µM DNA): 2.0544 µM/min and 2.2614 µM/min | 2-OG turnover rate ([2]; 2-OG 200 uM, 20 µM DNA): 3.7602 µM/min and 3.5166 µM/min | 2-OG turnover rate ([2]; 2-OG 400 uM, 20 µM DNA): 4.4538 µM/min and 4.2732 µM/min | 2-OG turnover rate ([2]; 2-OG 700 uM, 20 µM DNA): 4.9836 µM/min and 5.0838 µM/min | 2-OG turnover rate ([2]; 2-OG 1000 uM, 20 µM DNA): 5.3268 µM/min and 5.3442 µM/min | 2-OG turnover rate ([2]; 2-OG 2000 uM, 20 µM DNA): 5.8116 µM/min and 5.7954 µM/min | 2-OG turnover rate ([2]; 2-OG 4000 uM, 20 µM DNA): 6.75 µM/min and 6.036 µM/min | succinate ([2]; n = 1, time (min) 5HC DNA 5.9, AT DNA 5.81667, 5mC DNA 5.78333): 7.407 µM | succinate ([2]; n = 1, time (min) 5HC DNA 8.98333, AT DNA 8.9, 5mC DNA 8.86667): 12.5672 µM | succinate ([2]; n = 1, time (min) 5HC DNA 12.0667, AT DNA 11.9833, 5mC DNA 11.95): 16.4606 µM | succinate ([2]; n = 1, time (min) 5HC DNA 15.1333, AT DNA 15.0667, 5mC DNA 15.0333): 19.1176 µM | succinate ([2]; n = 1, time (min) 5HC DNA 18.2167, AT DNA 18.1333, 5mC DNA 18.1167): 21.6247 µM | succinate ([2]; n = 1, time (min) 5HC DNA 21.3667, AT DNA 21.2333, 5mC DNA 21.2): 24.6175 µM | succinate ([2]; n = 1, time (min) 5HC DNA 24.45, AT DNA 24.3167, 5mC DNA 24.2833): 26.0885 µM | succinate ([2]; n = 1, time (min) 5HC DNA 27.5333, AT DNA 27.3833, 5mC DNA 27.3667): 28.2137 µM | succinate ([2]; n = 1, time (min) 5HC DNA 30.6, AT DNA 30.4667, 5mC DNA 30.45): 29.4575 µM | succinate ([2]; n = 1, time (min) 5HC DNA 33.6833, AT DNA 33.55, 5mC DNA 33.5333): 31.2095 µM | succinate ([2]; n = 1, time (min) 5HC DNA 36.7667, AT DNA 36.6333, 5mC DNA 36.6167): 32.5108 µM | succinate ([2]; n = 1, time (min) 5HC DNA 39.85, AT DNA 39.7167, 5mC DNA 39.7): 33.8071 µM | succinate ([2]; n = 1, time (min) 5HC DNA 42.9333, AT DNA 42.8, 5mC DNA 42.7833): 34.7457 µM | succinate ([2]; n = 1, time (min) 5HC DNA 46.0167, AT DNA 45.8833, 5mC DNA 45.8667): 35.7895 µM | succinate ([2]; n = 1, time (min) 5HC DNA 49.0833, AT DNA 48.9667, 5mC DNA 48.95): 37.2861 µM | succinate ([2]; n = 1, time (min) 5HC DNA 52.1667, AT DNA 52.05, 5mC DNA 52.0333): 38.1768 µM | succinate ([2]; n = 1, time (min) 5HC DNA 55.25, AT DNA 55.1167, 5mC DNA 55.1167): 38.5101 µM | succinate ([2]; n = 1, time (min) 5HC DNA 58.3333, AT DNA 58.2, 5mC DNA 58.2): 39.4428 µM | succinate ([2]; n = 1, time (min) 5HC DNA 61.4, AT DNA 61.2833, 5mC DNA 61.2833): 40.1071 µM | succinate ([2]; n = 1, time (min) 5HC DNA 64.4833, AT DNA 64.3833, 5mC DNA 64.35): 40.323 µM | succinate ([2]; n = 2, time (min) 5HC DNA 5.81667, AT DNA 5.61667, 5mC DNA 6.08333): 6.9553 µM | succinate ([2]; n = 2, time (min) 5HC DNA 8.88333, AT DNA 8.7, 5mC DNA 9.16667): 12.0978 µM | succinate ([2]; n = 2, time (min) 5HC DNA 12.0333, AT DNA 11.7833, 5mC DNA 12.25): 15.5692 µM | succinate ([2]; n = 2, time (min) 5HC DNA 15.1167, AT DNA 14.8667, 5mC DNA 15.3167): 18.665 µM | succinate ([2]; n = 2, time (min) 5HC DNA 18.1833, AT DNA 17.9333, 5mC DNA 18.4): 21.5442 µM | succinate ([2]; n = 2, time (min) 5HC DNA 21.2667, AT DNA 21.0167, 5mC DNA 21.4833): 23.7344 µM | succinate ([2]; n = 2, time (min) 5HC DNA 24.35, AT DNA 24.1, 5mC DNA 24.5667): 25.3146 µM | succinate ([2]; n = 2, time (min) 5HC DNA 27.4333, AT DNA 27.1833, 5mC DNA 27.65): 27.7156 µM | succinate ([2]; n = 2, time (min) 5HC DNA 30.5167, AT DNA 30.2667, 5mC DNA 30.7333): 29.219 µM | succinate ([2]; n = 2, time (min) 5HC DNA 33.6, AT DNA 33.35, 5mC DNA 33.8167): 30.6366 µM | succinate ([2]; n = 2, time (min) 5HC DNA 36.6833, AT DNA 36.4333, 5mC DNA 36.9): 31.7592 µM | succinate ([2]; n = 2, time (min) 5HC DNA 39.7667, AT DNA 39.5167, 5mC DNA 39.9833): 33.6089 µM | succinate ([2]; n = 2, time (min) 5HC DNA 42.8333, AT DNA 42.6, 5mC DNA 43.0667): 34.5619 µM | succinate ([2]; n = 2, time (min) 5HC DNA 45.9167, AT DNA 45.6833, 5mC DNA 46.15): 35.6503 µM | succinate ([2]; n = 2, time (min) 5HC DNA 49, AT DNA 48.7667, 5mC DNA 49.2333): 37.1492 µM | succinate ([2]; n = 2, time (min) 5HC DNA 52.0833, AT DNA 51.85, 5mC DNA 52.3167): 37.4628 µM | succinate ([2]; n = 2, time (min) 5HC DNA 55.1667, AT DNA 54.9333, 5mC DNA 55.4): 38.3288 µM | succinate ([2]; n = 2, time (min) 5HC DNA 58.25, AT DNA 58.0167, 5mC DNA 58.4833): 38.622 µM | succinate ([2]; n = 2, time (min) 5HC DNA 61.3333, AT DNA 61.1, 5mC DNA 61.5667): 40.1844 µM | succinate ([2]; n = 2, time (min) 5HC DNA 64.4167, AT DNA 64.1667, 5mC DNA 64.65): 40.2655 µM | Relative V0 NgTet1 ([2]; relative to reactions without DNA): 3.6 | Vmax^app ([2]; with 20 µM 5HC DNA): 6.47 µM/min | kcat^app ([2]; with 20 µM 5HC DNA): 0.0217 s⁻¹
